According to US20140228287A1, “1-[(3-CYANO-PYRIDIN-2-YL)METHYL]-3-METHYL-7-(2-BUTYN-1-YL)-8-[3-(R)-AMINO-PIPERIDIN-1-YL]-AXANTHINE FOR THE TREATMENT OF A METABOLIC DISORDER OF A PREDOMINANTLY CARNIVOROUS NON-HUMAN ANIMAL” (BOEHRINGER INGELHEIM VETMEDICA GMBH, priority 2010, published 2014):
Where a name gives a salt, the structure may show the parent alone. Read-outs that look alike come from different tables or passages of the source.

Tests used:
amino-peptidase P = assay: In vitro selectivity, human proteases: amino-peptidase P; format: biochemical; details: up to 100 μM
Source text: (§1) In order to determine the in vitro selectivity of 1-[(3-cyano-pyridin-2-yl)methyl]-3-methyl-7-(2-butyn-1-yl)-8-[3-(R)-amino-piperidin-1-yl]-xanthine, the ability of this compound to inhibit a number of human proteases was investigated as described in Thomas et al. (2008), J. Pharmacol. Exp. Ther., vol. 325, p. 175-182, chapter In vitro DPP-4 Inhibition Assay, p. 176.

DPP IV [1] = molecular target: T1, DPP IV (Felis catus, UniProt Q9N2I7); assay: PK/PD studies in cats, summary; format: in vivo, cat
T1 construct: Blood samples for the determination of this compound and DPP IV activity were collected; from tissue; host or cells: plasma of domestic short hair / purpose-bred cats dosed orally
T1 sequence (Q9N2I7 38-765 limits assumed): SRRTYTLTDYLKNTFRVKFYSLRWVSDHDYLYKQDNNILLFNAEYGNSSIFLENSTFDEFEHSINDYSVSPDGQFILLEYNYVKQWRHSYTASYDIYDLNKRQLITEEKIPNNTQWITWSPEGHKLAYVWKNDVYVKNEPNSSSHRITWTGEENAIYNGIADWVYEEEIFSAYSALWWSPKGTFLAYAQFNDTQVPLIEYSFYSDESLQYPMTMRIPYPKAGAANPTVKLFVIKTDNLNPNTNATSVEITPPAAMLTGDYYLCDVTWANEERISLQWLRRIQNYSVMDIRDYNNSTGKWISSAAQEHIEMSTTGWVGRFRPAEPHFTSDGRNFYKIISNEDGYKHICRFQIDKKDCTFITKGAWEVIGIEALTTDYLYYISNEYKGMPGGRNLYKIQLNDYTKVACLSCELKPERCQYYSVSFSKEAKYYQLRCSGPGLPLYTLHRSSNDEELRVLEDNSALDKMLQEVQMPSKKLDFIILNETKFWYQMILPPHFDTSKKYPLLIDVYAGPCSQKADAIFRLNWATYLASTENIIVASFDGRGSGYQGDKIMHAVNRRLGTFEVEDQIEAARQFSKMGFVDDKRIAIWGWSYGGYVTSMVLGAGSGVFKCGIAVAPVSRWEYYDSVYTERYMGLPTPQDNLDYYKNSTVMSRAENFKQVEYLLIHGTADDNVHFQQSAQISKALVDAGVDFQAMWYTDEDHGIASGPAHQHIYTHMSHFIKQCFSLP
Protocol: PK/PD studies to measure the effect of different doses of 1-[(3-cyano-pyridin-2-yl)methyl]-3-methyl-7-(2-butyn-1-yl)-8-[3-(R)-amino-piperidin-1-yl]-xanthine CL on DPP IV activity, are presented in the experimental part of this application. […] Larger degrees of DPP IV inhibition, e.g. more than 80% in 24 h can be reached by increased doses. The duration of DPP IV inhibition can be prolonged with higher dosages.

plasmin = plasmin (Homo sapiens, UniProt P00747); assay: In vitro selectivity, human proteases: plasmin; format: biochemical; details: up to 100 μM
Chain of plasmin (P00747 581-810 limits assumed): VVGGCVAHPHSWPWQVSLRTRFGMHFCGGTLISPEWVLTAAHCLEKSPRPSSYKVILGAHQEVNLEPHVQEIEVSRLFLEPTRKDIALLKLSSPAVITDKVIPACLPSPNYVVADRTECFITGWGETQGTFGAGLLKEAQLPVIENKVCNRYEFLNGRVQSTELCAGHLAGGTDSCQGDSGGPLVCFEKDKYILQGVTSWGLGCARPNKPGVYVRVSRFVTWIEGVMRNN
Chain of plasmin (P00747 97-580 partner limits assumed): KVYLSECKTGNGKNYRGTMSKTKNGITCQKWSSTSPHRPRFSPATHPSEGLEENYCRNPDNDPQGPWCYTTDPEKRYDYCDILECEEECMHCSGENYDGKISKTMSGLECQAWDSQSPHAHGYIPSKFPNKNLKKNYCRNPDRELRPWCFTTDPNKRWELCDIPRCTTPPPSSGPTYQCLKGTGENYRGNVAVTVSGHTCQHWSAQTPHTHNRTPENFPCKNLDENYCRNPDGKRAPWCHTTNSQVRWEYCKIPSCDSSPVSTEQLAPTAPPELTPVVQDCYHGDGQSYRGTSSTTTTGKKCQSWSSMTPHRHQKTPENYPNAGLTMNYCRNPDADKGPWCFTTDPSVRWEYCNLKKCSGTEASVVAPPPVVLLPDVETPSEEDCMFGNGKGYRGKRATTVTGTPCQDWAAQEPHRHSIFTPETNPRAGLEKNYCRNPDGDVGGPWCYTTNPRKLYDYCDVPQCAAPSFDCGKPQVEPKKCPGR
Source text: as §1

DPP IV [2] = molecular target: T1, DPP IV; assay: Exploratory multiple dose PK/PD (1.0/3.0/9.0 mg/animal, 14 days) in cats: DPP IV activity; format: in vivo, cat; details: once daily oral 14 days, read-out: DPP IV activity in cat plasma; for response vs control in vivo at 1 mg/animal: head 1 mg/animal (title 1.0 mg/animal); for response vs control in vivo at 3 mg/animal: head 3 mg/animal (title 3.0 mg/animal); for response vs control in vivo at 9 mg/animal: head 9 mg/animal (title 9.0 mg/animal)
Protocol: The aim of this study was to investigate the PK/PD effects of 1-[(3-cyano-pyridin-2-yl)methyl]-3-methyl-7-(2-butyn-1-yl)-8-[3-(R)-amino-piperidin-1-yl]-xanthine in cats following repeated oral administration of 0, 1, 3 and 9 mg/animal over 14 days corresponding to a dose of 0, 0.25, 0.75 and 2.25 mg/kg body weight for a cat weighing 4 kg. (Dosages were based on the free base: 1 mg 1-[(3-cyano-pyridin-2-yl)methyl]-3-methyl-7-(2-butyn-1-yl)-8-[3-(R)-amino-piperidin-1-yl]-xanthine monohydrochloride corresponds to 0.923 mg 1-[(3-cyano-pyridin-2-yl)methyl]-3-methyl-7-(2-butyn-1-yl)-8-[3-(R)-amino-piperidin-1-yl]-xanthine free base).
For this purpose, twelve clinically healthy male adult domestic short hair cats with a body weight range of 3.5-4.8 kg were used. The animals were randomly allocated to 4 groups, 3 animals per group. All animals were treated once daily orally for 14 days (i.e. on days 0-13). The test article was administered via capsules at doses of 1 (group II), 3 (group III) or 9 (group IV) mg of the monohydrochloride compound per animal; group I received placebo serving as controls. Blood samples for PK and PD (DPP IV activity) investigations were drawn at 0 h (i.e. prior to the 1st treatment), 0.5, 1, 2, 4, 8, 12 and 24 h after the 1st treatment as well as 24 h after the 3rd, 5th, 7th, 9th, 11th and 13th treatment and 0.5, 1, 2, 4, 8, 12 and 24 h after the 14th treatment.

CC#CCn1c(N2CCC[C@@H](N)C2)nc2c1c(=O)n(Cc1ncccc1C#N)c(=O)n2C [1-[(3-cyano-pyridin-2-yl)methyl]-3-methyl-7-(2-butyn-1-yl)-8-[3-(R)-amino-piperidin-1-yl]-xanthine monohydrochloride]
inhibitory effect on amino-peptidase P (amino-peptidase P): did not exert any inhibitory effect | doses leading to a significant DPP IV inhibition (DPP IV [1]): more than 0.1 mg/kg | DPP IV inhibition in 24 h (DPP IV [1]; achieved with 1 to 3 mg/kg (˜3 to 9 mg per cat, or 4 to 30 nmol/l in cat plasma)): more than 70% | inhibitory effect on plasmin (plasmin): did not exert any inhibitory effect | response vs control in vivo at 1 mg/animal (DPP IV [2]; 0.5 h, 0.5 h): 31.3% | response vs control in vivo at 3 mg/animal (DPP IV [2]; 0.5 h, 0.5 h): 16% | response vs control in vivo at 9 mg/animal (DPP IV [2]; 0.5 h, 0.5 h): 8% | response vs control in vivo at 1 mg/animal (DPP IV [2]; 1 h, 1 h): 8.7% | response vs control in vivo at 3 mg/animal (DPP IV [2]; 1 h, 1 h): 10.3% | response vs control in vivo at 9 mg/animal (DPP IV [2]; 1 h, 1 h): 7.3% | response vs control in vivo at 1 mg/animal (DPP IV [2]; 2 h, 2 h): 9.7% | response vs control in vivo at 3 mg/animal (DPP IV [2]; 2 h, 2 h): 8% | response vs control in vivo at 9 mg/animal (DPP IV [2]; 2 h, 2 h): 7% | response vs control in vivo at 1 mg/animal (DPP IV [2]; 4 h, 4 h): 11.7% | response vs control in vivo at 3 mg/animal (DPP IV [2]; 4 h, 4 h): 8% | response vs control in vivo at 9 mg/animal (DPP IV [2]; 4 h, 4 h): 8% | response vs control in vivo at 1 mg/animal (DPP IV [2]; 8 h, 8 h): 17% | response vs control in vivo at 3 mg/animal (DPP IV [2]; 8 h, 8 h): 11.3% | response vs control in vivo at 9 mg/animal (DPP IV [2]; 8 h, 8 h): 9.3% | response vs control in vivo at 1 mg/animal (DPP IV [2]; 12 h, 12 h): 28% | response vs control in vivo at 3 mg/animal (DPP IV [2]; 12 h, 12 h): 14% | response vs control in vivo at 9 mg/animal (DPP IV [2]; 12 h, 12 h): 10.7% | response vs control in vivo at 1 mg/animal (DPP IV [2]; 24 h, 24 h): 57.7% | response vs control in vivo at 3 mg/animal (DPP IV [2]; 24 h, 24 h): 31.7% | response vs control in vivo at 9 mg/animal (DPP IV [2]; 24 h, 24 h): 18% | response vs control in vivo at 1 mg/animal (DPP IV [2]; 72 h, 72 h): 35.3% | response vs control in vivo at 3 mg/animal (DPP IV [2]; 72 h, 72 h): 23.3% | response vs control in vivo at 9 mg/animal (DPP IV [2]; 72 h, 72 h): 14.3% | response vs control in vivo at 1 mg/animal (DPP IV [2]; 120 h, 120 h): 63% | response vs control in vivo at 3 mg/animal (DPP IV [2]; 120 h, 120 h): 31.7% | response vs control in vivo at 9 mg/animal (DPP IV [2]; 120 h, 120 h): 17.7% | response vs control in vivo at 1 mg/animal (DPP IV [2]; 168 h, 168 h): 54% | response vs control in vivo at 3 mg/animal (DPP IV [2]; 168 h, 168 h): 41% | response vs control in vivo at 9 mg/animal (DPP IV [2]; 168 h, 168 h): 14.7% | response vs control in vivo at 1 mg/animal (DPP IV [2]; 216 h, 216 h): 57% | response vs control in vivo at 3 mg/animal (DPP IV [2]; 216 h, 216 h): 31.7% | response vs control in vivo at 9 mg/animal (DPP IV [2]; 216 h, 216 h): 15% | response vs control in vivo at 1 mg/animal (DPP IV [2]; 264 h, 264 h): 32.7% | response vs control in vivo at 3 mg/animal (DPP IV [2]; 264 h, 264 h): 19.3%
